Reference: patent publication US6660742B2, “Compositions and methods of the use thereof achiral analogues of CC-1065 and the duocarmycins” (priority 2000, dated 2003)
“And” between values parts separate entries of the source, which are not always exact repeats. Equal values may be shown once. Read-outs that look alike come from different tables or passages of the source.

Columns and labels:
[1] = test system: PC3 (human prostate cancer cells); test: SRB cytotoxicity on PC3 cells; format: cell-based
Protocol: (§1) Cells were seeded in 96-well microtiter plates at densities of 1000 cells/well. The optimal seeding density was determined to ensure exponential growth in control wells throughout the experimental period and to obtain a linear relationship between absorbance at 492 nm and cell number when analyzed by the sulforhodamine B (SRB) assay (43). 24 hours after seeding the cells were incubated for 1 hour or continuously for 3 days with the drugs (concentration range 0.01 to 500 μM). The cells were washed once and then incubated in drug free medium for 6 days. At the end of the incubation cell growth was determined by the SRB assay, which quantifies viable cells by measuring their total cellular protein content. […] Similar studies were conducted against the growth of PC3 (human prostate cancer cells) and MCF-7 (human breast cancer cells).

[2] = test system: MCF-7 (human breast cancer cells); test: SRB cytotoxicity on MCF-7 cells; format: cell-based
Protocol: as §1

[3] = test system: supercoil pBR322 DNA; test: pBR322 strand nicking assay; format: biochemical
Source text: When a compound is covalently bound to a purine-N3 in the minor groove of DNA, the adduct is thermally unstable. It is readily hydrolyzed to produce a DNA strand (2). Consequently, the formation of adenine-N3 (or guanine-N3) alkylation adducts can be detected by thermal conversion of supercoil pBR322 DNA (Form I) to nicked open […] DNA (Form II) as a result of the formation of single strand breaks. These two different forms of pBR322 DNA can then be separated by agarose gel electrophoresis, and the relative amounts of each form can be determined by densitometry of methylene blue stained gels (39). The supercoil form of pBR322 DNA is more compact than the open circular form, and as a result, moves further down the gel towards the positive electrode.
Solutions of the drugs dissolved in N,N-dimethylacetamide (DMA) were made at 0.10 mM concentrations, and were always stored in the refrigerator.
Tris buffer solution at pH 7.4 at 25° C. and 0.010 M was made from Tris HCl (0.661 g), Tris base (0.097 g) diluted to a 100 mL volume with distilled water. Then EDTA-Na2—2H2O (0.186 g) and KCl (3.72 g) were added to the Tris HCl solution and diluted to 500 mL volume with distilled water. A TBE solution was prepared from Carolina Lot #4020602 Electrophoresis buffer 20 times TBE diluted to a volume of three liters with deionized water. The agarose gel was prepared from agarose low EEO (0.32 g) dissolved in TBE buffer (40 mL) and heated in a microwave oven until dissolved.
The pBR322 DNA (100 μg/100 μL) from Pharmacia Biotech was in a buffer (10 mM Tris-HCl pH 7.5, and 1 mM EDTA). The DNA was prepared from plasmid DNA isolated from E. coli HB101 by the alkaline lysate procedure and was purified by Sepharcryl S-100 chromatography followed by CsCl-ethidium bromide centrifugation.
The alkylation samples were prepared by adding DNA (10 μL), Tris-EDTA KCl buffer (18 μL), and compound (2 μL) at 100 μM concentration to Eppendorf tubes. The samples were incubated at 40° C. for 40 h. The samples were removed then centrifuged for one minute. 10% SDS (sodium dodecylsulfate) (2 μL), 50% glycerol (5 μL), and bromophenol blue (2 μL) were added to the samples. The contents of the tubes were mixed with a Vortex mixer then centrifuged to consolidate the samples. The agarose gel was covered with TBE-buffer in the chamber. The samples were loaded onto the agarose gel and run at 40 V for three hours, or when the band were about three/fourths of the way down the gel.
The gel was removed and stained with methylene blue (45 min). At this time, the stained gel was placed in a water chamber overnight. The intensities of each band i.e. Form I and II were determined using densitometry.

[4] = test system: human H522 lung cancer; settings: hollow fiber
[5] = test system: K-562
Protocol: (§2) The compounds of this invention were also tested against the panel of 60 human cancer cell lines at the National Cancer Institute, Bethesda, Md. […] The cytrotoxicity studies were conducted using a 48 hour exposure, and measuring the optical density of sulforhodamide B-derived color.

[6] = test system: SF-539
Protocol: as §2

[7] = test system: MALME-3M
Protocol: as §2

[8] = test system: SK-MEL-28
Protocol: as §2

[9] = test system: OVCAR-4
Protocol: as §2

[10] = test system: RXF 393
Protocol: as §2

[11] = test system: DU-145
Protocol: as §2

[12] = test system: MCF7
Protocol: as §2

[13] = test system: BT-549
Protocol: The compounds of this invention were also tested against the panel of 60 human cancer cell lines at the National Cancer Institute, Bethesda, Md. (44). The cytrotoxicity studies were conducted using a 48 hour exposure, and measuring the optical density of sulforhodamide B-derived color.

[14] = test system: HL-60(TB); format: cell-based
[15] = test system: A498; test: NCI screen, A498 (Renal Cancer); format: cell-based, human
Protocol: as §2

[16] = test system: A549/ATCC; test: cells; settings: Homo sapiens, A549, 48 h
[17] = Log10 Concentration −4.3, 48 hour exposure
[18] = Log10 Concentration −5.3, 48 hour exposure
[19] = Log10 Concentration −6.3, 48 hour exposure
[20] = Log10 Concentration −7.3, 48 hour exposure
[21] = Log10 Concentration −8.3, 48 hour exposure

O=C(Nc1cc(O)ccc1CCCl)c1cc2cc(NC(=O)c3cc4ccccc4o3)ccc2[nH]1 [Compound 1, 4-(2-Chloroethyl)-3-[5-(5-benzofuran-2-carboxamido)indole-2-carboxamido]phenol]
IC50 ([1]; continuous exposure, read-out: IC50 PC3 Continuous exposure): 3 µM | IC50 ([1]; read-out: IC50 PC3 1 hour exposure, 1 hour exposure): 82.4 µM | IC50 ([2]; continuous exposure, read-out: IC50 MCF-7 Continuous exposure): 3.43 µM | IC50 ([2]; read-out: IC50 MCF-7 1 hour exposure, 1 hour exposure): > 50 µM | Form I DNA (%) [3]: 73 ± 2% | Form II DNA (%) [3]: 27 ± 4% | IP+SC score [4]: 18 | cell kill [4]: significant cells kill was observed | IP score ([4]; intraperitoneal fibers): 8 | SC score ([4]; subcutaneous fibers): 10 | CC50 [5]: > 100 µM | CC50 [6]: 9 µM | GI50 [7]: 1.84 µM | TGI [7]: 3.56E−06 Molar | Percent Growth ([7]; Log10 Concentration −4.0): −95% | Percent Growth ([7]; Log10 Concentration −7.0): 102% | Percent Growth ([7]; Log10 Concentration −8.0): 102% | CC50 [8]: 21.4 µM | Percent Growth [9]: 108% and 128% | GI50 ([9]; OVCAR-4): 2.39 µM | TGI ([9]; OVCAR-4): 5.06E−06 Molar | Percent Growth ([9]; OVCAR-4, Log10 Concentration −4.0): −82% | Percent Growth ([9]; OVCAR-4, Log10 Concentration −5.0): −45% | Percent Growth ([9]; OVCAR-4, Log10 Concentration −7.0): 115% | CC50 [10]: 4.77 µM | Percent Growth [11]: 53% | GI50 ([11]; DU-145): 1.12 µM | TGI ([11]; DU-145): 6.16E−06 Molar | Percent Growth ([11]; DU-145, Log10 Concentration −4.0): −96% | Percent Growth ([11]; DU-145, Log10 Concentration −5.0): −14% | Percent Growth ([11]; DU-145, Log10 Concentration −7.0): 104% | Percent Growth ([11]; DU-145, Log10 Concentration −8.0): 101% | CC50 [12]: 5 µM | CC50 [13]: > 100 µM

COC(=O)c1[nH]c2c(O)cc(NC(=O)c3cc4cc(OC)c(OC)c(OC)c4[nH]3)c(CCCl)c2c1C(=O)OC [Compound 22, Dimethyl 4-(2-chloroethyl)-7-hydroxy-5-(5,6,7-trimethoxyindole-2-carboxamido)indole-2,3-dicarboxylate]
TGI ([14]; 48 hour exposure): >5.00E−05 Molar | Percent Growth [14, 17]: 3% | Percent Growth [14, 18]: 9% | Percent Growth [14, 19]: 10% | Percent Growth [14, 20]: 54% | Percent Growth [14, 21]: 85% | TGI ([15]; 48 hour exposure): 5.15E−06 Molar | Percent Growth [15, 17]: −82% | Percent Growth [15, 18]: 1% | Percent Growth [15, 19]: 5% | Percent Growth [15, 20]: 98% | Percent Growth [15, 21]: 95% | GI50 [16]: 0.135 µM | CC50 ([16]; read-out: LC50): > 50 µM
